Positions of bridges follow the written chain, without caps; N, C: chain ends. Non-standard residues stand in square brackets, D forms with d. Residues, ends and D or L forms follow the SMILES beside them. *: point of attachment. Ileψ(thiazoline)Cys = CC[C@H](C)[C@H](N)C1=N[C@H](C(=O)*)CS1; Sta = CC(C)C[C@H](N)[C@@H](O)CC(=O)O; dOrn = NCCC[C@@H](N)C(=O)O; Isovaleryl = CC(C)CC(=O)*; Cbz = O=C(OCc1ccccc1)*; CH2Cl = ClC*
How the values were obtained:
Assay type in all cases: biochemical
[1] = tested on: HEK293 cytosolic fractions; assay: Quenched Aβ peptide (qAβ) degradation assay in HEK293 cytosolic fractions, with and without protease inhibitors; conditions: protease inhibitor added to HEK293 cytosolic fractions prior to qAβ, 30 minutes at 4 °C; inhibitor concentrations 20-200 µM; fluorescence at 37°C
Text: We developed a sensitive Aβ degradation assay by generating a quenched Aβ40 peptide containing a small fluorescein group and a quenching dabcyl group (Reits et al., 2004) flanking the KLVFF sequence present in the middle of the Aβ peptides that is a critical region for aggregation (Fig. 1A) (Tjernberg et al., 1996). A quenched Aβ42 peptide was difficult to synthesize as the peptide was too aggregation-prone during synthesis, preventing efficient labeling with the small fluorophore. […] The qAβ peptides were added to cytoplasmic fractions of mildly lysed HEK293 cells, thereby preventing contamination with extracellular membrane-bound or lysosomal proteases, resulting in an increase in fluorescent signal (Fig. 1B). To identify which proteases play a role in this Aβ clearance machinery, different protease inhibitors were added to the cytosolic fractions prior to adding the qAβ. […]
HEK cells were lysed in 25 µM digitonin (Sigma) in KMH buffer (110 mM KAc, 2 mM MgAc and 20 mM Hepes-KOH, pH 7.2). Human and mouse brain hippocampal tissue was lysed in ± 400 µl (adjusted to the amount of tissue) of homogenization buffer (50 mM Tris/HCl pH 7.5, 250 mM sucrose, 5 mM MgCl2 and freshly added 2 mM ATP, 1 mM DTT and 0.025 % digitonin (Sigma)). Tissue was homogenized on ice in homogenization buffer using a homogenizer. Cell lysates were incubated for 30 minutes on ice and centrifuged for 15 minutes at 14.000 rpm at 4 °C.
HFIP-treated aliquots of Aβ40 were resuspended in DMSO followed by sonication for 10 minutes, immediately before use. 75 ng (340 nM) of quenched Aβ40 was added to 5 µg protein from the cell lysates in KMH buffer (110 mM KAc, 2 mM MgAc and 20 mM Hepes-KOH, pH 7.2) to a total volume of 50 µl. Protease inhibitors (100 µM 1,10-phenanthroline, 200 µM bacitracin, 100 µM E64, 20 µM MG-132, 100 µM puromycin, 100 µM PMSF, 200 µM pepstatin A (all Sigma), 100 µM AAF-CMK, 100 µM amastatin or 50 µM bestatin (Enzo lifesciences AG), 50 µM PAQ-22 (Wako Chemicals), 100 µM Cpp-AAF-pNa (InstruChem), 50 µM PAQ-22 (SopaChem) and 100 µM butabindide (Tocris Bioscience)) were added to the cell lysates and incubated for 30 minutes at 4 °C. Degradation of the peptide was analyzed at 37°C using the FLUOstar OPTIMA (BMG Labtec.).

SH-SY5Y cell lysates = assay: Degradation of the quenched 12-mer peptide in SH-SY5Y cell lysates
Text: To proof that shorter variants of the substrates of the invention may also be used as a suitable substrate to measure IDE activity, we analyzed the degradation of a substrate having the amino acid sequence HQKLVFFACDBC, which contains the KLVFF region flanked by a quenched and fluorophore. In addition, we examined the effect of bacitracine, the inhibitor for IDE, on the degradation of this 12-mer peptide (see Figure 5), as well as its ability to aggregate and form oligomers.
The 12-mer substrate having the amino acid sequence HQKLVFFACDCB (SEQ ID NO:10) containing a fluorophore and quencher was synthesized as described before (Reits et al., 2004), introducing a fluorescein at the cysteine (position 11) and a quenching dabcyl group at the lysine (position 3). The substrate was sonificated immediately before use and added to 5 µg cell lysate. KMH buffer (110 mM KAc, 2 mM MgAc and 20 mM Hepes-KOH, pH 7.2) was added to a total volume of 50 µl. Degradation of the substrate was analyzed at 37°C using the FLUOstar OPTIMA (BMG Labtec.).

[2] = tested on: human hippocampal lysates; assay: Quenched Aβ peptide (qAβ) degradation assay in human hippocampal lysates at different Braak stages; conditions: bacitracin added to hippocampal lysates prior to qAβ; all Braak stages
Description: Since the hippocampus is highly susceptible to Aβ accumulation, we examined whether the ability to degrade Aβ is affected in sporadic (sAD) using human hippocampal tissue of post-mortem brains with varying Braak stages. Included were Braak 0 (control, no AD) and Braak I-VI. When the ability to degrade qAβ was determined for each Braak stage (Fig. 2A, solid bars), a strong decrease in qAβ degradation rate was already observed in Braak stage I (t-test, two-tailed, p=0.03), which further decreased during the progression to Braak stage II (t-test, two-tailed, p=0.01). […] Also oligomerized Aβ was less well degraded with increasing Braak stage (Fig. 2B). AD progression can also be classified by plaque distribution in well defined brain areas giving a particular amyloid score, ranging from O (no plaques) to C. Similar to increasing Braak stages, the rate of qAβ degradation decreased with increasing amyloid score, being significant for hippocampal fractions of brains classified with amyloid score C (t-test, two-tailed, p=0.017) (Fig. 2C). […]
HFIP-treated aliquots of Aβ40 were resuspended in DMSO followed by sonication for 10 minutes, immediately before use. […] Degradation of the peptide was analyzed at 37°C using the FLUOstar OPTIMA (BMG Labtec.).

Compound | effect on qAβ degradation [1] | also measured
O=S(=O)(F)Cc1ccccc1 [PMSF] | did not show any effect | –
c1cnc2c(c1)ccc1cccnc12 [phenantroline, 1,10-phenanthroline] | significantly decreased | –
CC(C)C[C@@H](C=O)NC(=O)[C@H](CC(C)C)NC(=O)[C@H](CC(C)C)NC(=O)OCc1ccccc1 [MG132] (Cbz-Leu-Leu-Leu-aldehyde) | did not show any effect | –
CC(C)C[C@@H](N)[C@H](O)C(=O)N[C@H](C(=O)N[C@H](C(=O)N[C@@H](CC(=O)O)C(=O)O)C(C)C)C(C)C [amasatin] | did not show any effect | –
CC(C)CC(=O)N[C@H](C(=O)N[C@H](C(=O)N[C@@H](CC(C)C)[C@@H](O)CC(=O)N[C@@H](C)C(=O)N[C@@H](CC(C)C)[C@@H](O)CC(=O)O)C(C)C)C(C)C [pepstatin] (Isovaleryl-VV[Sta]A[Sta]-OH) | did not show any effect | –
CC(C)C[C@H](NC(=O)[C@@H](O)[C@H](N)Cc1ccccc1)C(=O)O [bestatin] | did not show any effect | –
C[C@H](N)C(=O)N[C@@H](C)C(=O)N[C@@H](Cc1ccccc1)C(=O)CCl [AAF-CMK] (H-Ala-Ala-Phe-CH2Cl) | did not show any effect | –
CC(C)C[C@H](NC(=O)[C@H]1O[C@@H]1C(=O)O)C(=O)NCCCCN=C(N)N [E64] | did not show any effect | –
HQKLVFFACDCB [12-mer peptide] | – | plateau level of fluorescence after aggregation (SH-SY5Y cell lysates; 12-mer peptide incubated at 37°C (3 HR in PBS) before addition to SH-SY5Y cell lysates): lower plateau level; degradation of the 12-mer peptide (SH-SY5Y cell lysates; monomeric form added to SH-SY5Y cell lysates): degradation could be observed
CCCCNC(=O)[C@@H]1Cc2ccccc2N1C(=O)[C@@H](N)CC [butabindide] | did not show any effect | –
CC[C@H](C)[C@H](N)C1=N[C@H](C(=O)N[C@@H](CC(C)C)C(=O)N[C@H](CCC(=O)O)C(=O)N[C@H](C(=O)N[C@H]2CCCCNC(=O)[C@H](CC(N)=O)NC(=O)[C@@H](CC(=O)O)NC(=O)[C@H](Cc3cnc[nH]3)NC(=O)[C@@H](Cc3ccccc3)NC(=O)[C@H]([C@@H](C)CC)NC(=O)[C@@H](CCCN)NC2=O)[C@@H](C)CC)CS1 [bacitracin] ({Ileψ(thiazoline)Cys}-L[dE]IK[dOrn]I[dF]H[dD]N; lactam 4-C) | reduced | ability to degrade qAβ [2]: strongly reduced; effect on degradation of the 12-mer peptide (SH-SY5Y cell lysates; bacitracine added to SH-SY5Y cell lysates, monomeric 12-mer): inhibited
